Converted amounts (≈) assume the structure as drawn.
Columns and labels:
[1] = molecular target: T1, human recombinant MAO-A (Homo sapiens, UniProt P21397); assay: MAO inhibition assay (kynuramine, fluorimetric); format: biochemical
T1 sequence (P21397 1-527): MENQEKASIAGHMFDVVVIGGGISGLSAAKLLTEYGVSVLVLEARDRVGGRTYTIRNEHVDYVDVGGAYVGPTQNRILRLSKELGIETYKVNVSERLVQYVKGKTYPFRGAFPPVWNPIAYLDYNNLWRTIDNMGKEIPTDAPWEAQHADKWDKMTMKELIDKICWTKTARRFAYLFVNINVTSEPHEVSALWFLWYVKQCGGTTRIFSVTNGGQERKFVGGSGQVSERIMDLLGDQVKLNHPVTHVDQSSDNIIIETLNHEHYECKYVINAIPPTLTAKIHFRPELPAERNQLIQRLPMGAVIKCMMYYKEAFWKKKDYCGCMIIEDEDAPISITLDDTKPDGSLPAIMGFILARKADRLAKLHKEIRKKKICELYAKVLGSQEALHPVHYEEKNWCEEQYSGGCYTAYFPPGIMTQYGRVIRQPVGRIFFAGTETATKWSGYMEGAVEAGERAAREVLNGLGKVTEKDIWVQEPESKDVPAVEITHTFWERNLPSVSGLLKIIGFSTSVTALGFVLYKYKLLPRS
Protocol: (§1) Enzyme activity assays were performed according to the procedure reported by Matsumoto et al. with slight modifications. In order to prevent the destructive effect of light on MAO enzymes, the assays were performed in 96-well black plates. Phosphate buffer solution (0.1 M, pH = 7.4) was used for preparation of stock solutions (5 mg/mL) of both human recombinant MAO-A and MAO-B enzymes. […] The addition of the test compound solution was followed by addition of either MAO-A or MAO-B enzyme (50 μL/well) solutions. After 10 min of incubation at 37 °C, kynuramine (50 μL/well) was added and enzyme-substrate reaction was initiated. The plate was incubated for 20 min at 37 °C and then reaction was terminated by addition of 2 N NaOH (75 μL/well). The fluorimetric reads from the top was performed at 310 nm excitation and 380 nm emission wavelengths.

[2] = molecular target: T2, human recombinant MAO-B (Homo sapiens, UniProt P27338); assay: MAO inhibition assay (kynuramine, fluorimetric); format: biochemical
T2 sequence (P27338 1-520): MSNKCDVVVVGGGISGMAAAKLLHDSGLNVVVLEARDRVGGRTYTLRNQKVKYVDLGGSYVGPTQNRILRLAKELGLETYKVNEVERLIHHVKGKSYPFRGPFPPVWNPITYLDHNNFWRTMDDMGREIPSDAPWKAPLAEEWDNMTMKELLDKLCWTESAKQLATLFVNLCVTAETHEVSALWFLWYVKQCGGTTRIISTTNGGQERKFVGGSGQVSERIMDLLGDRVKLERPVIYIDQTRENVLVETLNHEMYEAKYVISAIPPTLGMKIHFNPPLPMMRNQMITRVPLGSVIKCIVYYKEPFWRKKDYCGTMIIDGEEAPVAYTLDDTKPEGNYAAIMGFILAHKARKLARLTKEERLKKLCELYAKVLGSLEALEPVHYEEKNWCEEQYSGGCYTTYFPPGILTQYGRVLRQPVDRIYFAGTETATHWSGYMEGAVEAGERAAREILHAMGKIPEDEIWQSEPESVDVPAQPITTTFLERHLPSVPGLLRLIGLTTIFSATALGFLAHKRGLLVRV
Protocol: as §1

[3] = molecular target: T3, COX-1 (Ovis aries, UniProt P05979); assay: Fluorimetric COX-1 inhibition screening kit (BioVision); format: biochemical; details: for COX-1 inhibition at the initial concentrations: 10^−3 M and 10^−4 M; for inhibition at 10 µM: 10^−5 M; for inhibition at 1 µM: 10^−6 M; for inhibition at 0.1 µM: 10^−7 M; for inhibition at 0.01 µM: 10^−8 M; for inhibition at 0.001 µM: 10^−9 M
T3 construct: purchased BioVision (Milpitas, CA, USA) K548-100
T3 sequence (P05979 25-600): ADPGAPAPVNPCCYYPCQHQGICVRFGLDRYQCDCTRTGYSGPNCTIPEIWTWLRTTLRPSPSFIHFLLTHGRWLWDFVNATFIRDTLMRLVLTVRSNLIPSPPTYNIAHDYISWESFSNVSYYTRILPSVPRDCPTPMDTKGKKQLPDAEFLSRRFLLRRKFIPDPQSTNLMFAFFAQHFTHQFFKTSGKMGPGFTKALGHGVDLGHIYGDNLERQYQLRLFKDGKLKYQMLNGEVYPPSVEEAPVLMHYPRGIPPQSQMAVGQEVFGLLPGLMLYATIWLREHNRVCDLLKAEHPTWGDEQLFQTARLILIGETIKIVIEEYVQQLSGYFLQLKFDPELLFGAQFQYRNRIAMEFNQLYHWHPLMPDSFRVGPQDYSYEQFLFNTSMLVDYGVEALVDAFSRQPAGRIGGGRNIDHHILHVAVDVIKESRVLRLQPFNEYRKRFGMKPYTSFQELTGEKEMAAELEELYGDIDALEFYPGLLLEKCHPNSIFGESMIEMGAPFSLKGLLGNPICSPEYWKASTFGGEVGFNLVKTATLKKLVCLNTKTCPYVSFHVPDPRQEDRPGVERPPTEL
Protocol: Inhibitory potency of the compounds on COX-1 and COX-2 enzymes was determined by using fluorimetric COX-1 and COX-2 inhibition screening kits from BioVision (Milpitas, CA, USA). The experimental protocol as described in the guides provided by the supplier was followed. All of the pipetting were performed using a robotized system to increase speed, accuracy and precision. Fluorescence intensities of the samples were kinetically measured at 25 °C for 5–10 min by monitoring emissions at 587 nm after excitation at 535 nm. Two appropriate points (T1 and T2) in the linear range of the plot were chosen and the corresponding fluorescence values (RFU1 and RFU2) were obtained. The slope for all samples including Enzyme Control (EC) was calculated by dividing the net ΔRFU (RFU2 − RFU1) values by the time ΔT (T2 − T1). Percentage of relative inhibition was calculated by using the following equation:% Relative inhibition = (Slope of EC − Slope of S/Slope of EC) × 100 where S is the term representing the tested compound [51, 52]. […] The IC50 values were calculated using the plots of the enzyme activity against concentrations by applying regression analyses.

[4] = tested on: Pseudomona aeuroginosa ATCC 27853; assay: Antimicrobial broth microdilution (CLSI M07-A9); format: cell-based; details: for MIC50: Pseudomona aeuroginosa [sic] ATCC 27853; for fold lower MIC50 / greater activity than chloramphenicol: Pseudomona aeuroginosa ATCC 27853
Protocol: Microbiological studies were performed according to CLSI reference M07-A9 broth microdilution method for bacterial strains and EUCAST definitive method EDef 7.1 for Candida species. Synthesized compounds were tested for their in vitro growth inhibitory activity against Escherichia coli ATCC 35218, Escherichia coli ATCC 25922, Staphylococcus aureus, ATCC 25923, Pseudomona aeuroginosa ATCC 27853, Enterococcus faecalis ATCC29212, Klebsiella pneumoniae ATCC700603 Listeria monocytogenes ATCC7644, Candida albicans ATCC90028, Candida glabrata ATCC 90030, Candida krusei ATCC 6258, Candida parapsilosis ATCC 22019.
The cultures were obtained from Mueller-Hinton broth (Difco) for the bacterial strains and the yeasts were maintained in Roswell Park Memorial Institute (RPMI) medium, after an overnight incubation at 37 °C for both. The inocula of the test microorganisms were adjusted to match an equivalent turbidity of a 0.5 McFarland standard, which was determined using a spectrophotometer; the final inoculum size was determined to be 0.5–2.5 × 10^5 cfu/mL for antibacterial and antifungal assays. The tests were carried out for both mediums at pH = 7 and two-fold serial dilutions were applied. The last well on the microplates, which was containing only the inoculated broth, was kept as control, and the last well with no growth of microorganism was recorded to represent the minimum inhibitory concentration (MIC50) in μg/mL. For both of the antibacterial and antifungal assays, the test compounds and reference drugs were firstly dissolved in DMSO, and further dilutions were performed to the desired concentrations of 1000, 500, 250, 125, 62.5, 31.25, 15.6, 7.8, 3.9 and 1.95 μg/mL using Mueller–Hinton broth and RPMI medium. The completed plates were incubated for 24 h, and at the end of the incubation, resazurin (20 µg/mL) was added into each well to control the growth in the wells. Final plates including microorganism strains were incubated for 2 h. MIC50 values were determined using microplate reader at […] wavelengths; MIC50 readings were performed twice for entire compounds. Chloramphenicol and ketoconazole were used as reference drugs.

SMILES | MAO-A Inhibition (%) ([1]; 10^-3 M) | MAO-A Inhibition (%) ([1]; 10^-4 M) | MAO-B Inhibition (%) ([2]; 10^-3 M) | MAO-B Inhibition (%) ([2]; 10^-4 M) | IC50 [3] | COX-1 Inhibition (%) ([3]; 10^-3 M) | COX-1 Inhibition (%) ([3]; 10^-4 M) | COX-1 inhibition at the initial concentrations [3] | inhibition at 10 µM [3] | inhibition at 1 µM [3] | inhibition at 0.1 µM [3] | inhibition at 0.01 µM [3] | inhibition at 0.001 µM [3] | MIC50 [4] | fold lower MIC50 / greater activity than chloramphenicol [4]
CCOc1ccc(-c2nc3ccccc3n2CCN2CCOCC2)cc1 [Compound 2j, 2-(4-Ethoxyphenyl)-1-[2-(morpholin-4-yl)ethyl]-1H-benzimidazole] | 28.47% | 19.42% | 41.73% | 32.44% | 14.2 µM | 85.07% | 88.68% | more than 50% | 51.4 ± 1.15% | 44.5 ± 1.07% | 37.7 ± 0.76% | 27.5 ± 0.82% | 23.4 ± 0.61% |  | 
CC(C)c1ccc(-c2nc3ccccc3n2CCN2CCOCC2)cc1 [Compound 2e, 2-(4-Isopropylphenyl)-1-[2-(morpholin-4-yl)ethyl]-1H-benzimidazole] | 24.29% | 17.31% | 35.47% | 26.65% |  | 26.47% | 19.88% |  |  |  |  |  |  | 250 µg/mL (≈ 715 µM) | 
COc1ccc(-c2nc3ccccc3n2CCN2CCOCC2)cc1 [Compound 2b, 2-(4-Methoxyphenyl)-1-[2-(morpholin-4-yl)ethyl]-1H-benzimidazole] | 29.44% | 24.61% | 32.44% | 31.75% | 8.1 µM | 90.12% | 87.62% | more than 50% | 59.4 ± 1.24% | 42.8 ± 1.02% | 37.1 ± 0.92% | 26.8 ± 0.87% | 19.6 ± 0.76% | 0.0156 µg/mL (≈ 0.0462 µM) | 16 fold
FC(F)(F)Oc1ccc(-c2nc3ccccc3n2CCN2CCOCC2)cc1 [Compound 2m, 2-(4-Trifluoromethoxyphenyl)-1-[2-(morpholin-4-yl)ethyl]-1H-benzimidazole] | 34.29% | 16.39% | 25.84% | 12.43% | 21.9 µM | 79.15% | 78.61% | more than 50% | 47.4 ± 1.16% | 42 ± 0.88% | 36.6 ± 0.92% | 26.2 ± 0.79% | 20 ± 0.62% | 125 µg/mL (≈ 319 µM) | 2 fold
Clc1ccc(-c2nc3ccccc3n2CCN2CCOCC2)cc1 [Compound 2c, 2-(4-Chlorophenyl)-1-[2-(morpholin-4-yl)ethyl]-1H-benzimidazole] | 31.58% | 26.17% | 41.12% | 33.54% |  | 24.55% | 22.15% |  |  |  |  |  |  | 125 µg/mL (≈ 366 µM) | 2 fold
